These results are taken from patent US20090118288A1, “N-Benzyl-Morpholine Derivatives as Modulators of the Chemokine Receptor” (ASTRAZENECA AB, priority 2005, published 2009).

The first experiment deals with T1, human recombinant CCR3 receptors (Homo sapiens, UniProt P51677).
T1 construct: expressed in transfected cells
T1 sequence (P51677 1-355): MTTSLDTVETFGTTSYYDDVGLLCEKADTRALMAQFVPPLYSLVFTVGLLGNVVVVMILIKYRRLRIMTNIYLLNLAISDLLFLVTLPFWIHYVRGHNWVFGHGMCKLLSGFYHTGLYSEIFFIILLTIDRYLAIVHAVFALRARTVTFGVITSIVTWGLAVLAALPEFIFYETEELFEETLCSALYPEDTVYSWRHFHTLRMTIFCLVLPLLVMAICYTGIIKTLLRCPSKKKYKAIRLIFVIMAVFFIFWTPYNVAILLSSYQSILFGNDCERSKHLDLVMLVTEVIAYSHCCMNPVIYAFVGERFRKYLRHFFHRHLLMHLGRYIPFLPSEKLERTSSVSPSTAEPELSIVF
Kind of experiment: Compound affinity at human recombinant CCR3 receptors by radioligand competition on CHO-K1 cell membranes. The conditions noted are these: competition of 2 nM [3H]-4-(2,4-dichloro-3-methylphenoxy)-1'-[4-(methylsulfonyl)benzoyl]-1,4'-bipiperidine, 2 h at 37° C., mean of minimum 2 experiments, Cheng-Prussof correction of pIC50. It is filed as binding. How it is done: Determination of Compound Affinity at Human Recombinant CCR3 Receptors Assessed by Competition of [^3H]-4-(2,4-dichloro-3-methylphenoxy)-1′-[4-(methylsulfonyl)benzoyl]-1,4′-bipiperidine for CHO-K1 Cell Membranes In Vitro
Membranes, prepared from CHO-K1 cells stably expressing recombinant human CCR3, suspended in assay buffer (50 mM Tris-Base, pH 7.4; containing sodium chloride (100 mM) and magnesium chloride (2 mM)) were incubated in the presence of 2 nM [^3H]-4-(2,4-dichloro-3-methylphenoxy)-1′-[4-(methylsulfonyl)benzoyl]-1,4′-bipiperidine, along with vehicle (1% (v/v) DMSO), 4-(4-chloro-3-methylphenoxy)-1′-[2-(methylsulfonyl)benzoyl]-1,4′-bipiperidine (to define non-specific binding) or test compound for 2 h at 37° C. in round bottomed 96-well plates. The plates were then filtered onto GF/B filter plates, pre-soaked for 1 hour in plate-coating solution (0.3% (w/v) polyethylenimine, 0.2% (w/v) BSA in de-ionised water), using a 96-well plate Tomtec cell harvester. Four washes (250 μL) with wash buffer (50 mM Tris-Base, pH 7.4 containing sodium chloride (500 mM) and magnesium chloride (2 mM)) were performed at 4° C. to remove unbound radioactivity. Plates were dried and MicroScint-O (50 μL) was added to each well. The plates were sealed (TopSeal A) and filter-bound radioactivity was measured with a scintillation counter (TopCount, Packard BioScience) using a 1 minute counting protocol.
Specific binding was determined from values of the control wells minus the values for the NSB wells for each assay plate. pIC50 values were calculated using a four parameter logistic fit (where pIC50 is defined as the negative logarithm of the concentration of compound required for 50% reduction in specific [^3H]-4-(2,4-dichloro-3-methylphenoxy)-1′-[4-(methylsulfonyl)benzoyl]-1,4′-bipiperidine binding). Data were presented as mean pKi values (calculated by applying a Cheng-Prussof correction to pIC50 values) from a minimum of 2 separate experiments.
For orientation: Loss of bound radioactivity is the signal in a displacement assay; it reports binding, not function.
Turning to “2-Amino-6-({[4-(3,4-dichloro-benzyl)-morpholin-2-ylmethyl]-carbamoyl}-methylsulfanyl)-5-fluoro-nicotinic acid [Example 29A]”, the “CCR3 pKi” value came out at 9.4.

Still in this experiment, the particulars now being: competition of 2 nM [3H]-4-(2,4-dichloro-3-methylphenoxy)-1'-[4-(methylsulfonyl)benzoyl]-1,4'-bipiperidine, 2 h at 37° C., mean of minimum 2 experiments, Cheng-Prussof correction of pIC50, read-out: CCR3 pKi (converted).
Turning to `O=C(CSc1ccc(C(=O)O)cc1C(F)(F)F)NC[C@H]1CN(Cc2ccc(Cl)c(Cl)c2)CCO1` [Example 8A, (S)-4-[[4-[(3,4-dichlorophenyl)methyl]morpholin-2-yl]methylcarbamoylmethylsulfanyl]-3-(trifluoromethyl)benzoic acid], the Ki was 0.2 nM.
Still for that read-out and setting: in the case of `O=C(CSc1ncc(C(=O)O)cc1Cl)NC[C@H]1CN(Cc2ccc(Cl)c(Cl)c2)CCO1` [Example 9A, (S)-5-chloro-6-[[4-[(3,4-dichlorophenyl)methyl]morpholin-2-yl]methylcarbamoylmethylsulfanyl]-nicotinic acid] it was 0.251 nM; in that of `Cc1cc(CN2CCO[C@@H](CNC(=O)CSc3ccc(C(=O)O)cc3F)C2)ccc1Cl` [Example 16A, 4-[[(2S)-4-[(4-chloro-3-methyl-phenyl)methyl]morpholin-2-yl]methylcarbamoylmethylsulfanyl]-3-fluoro-benzoic acid], 0.251 nM.
Consider `O=C(CSc1ccc(C(=O)O)cc1)NC[C@H]1CN(Cc2ccc(Cl)c(Cl)c2)CCO1` [Example 2, (S)-4-[[4-[(3,4-dichlorophenyl)methyl]morpholin-2-yl]methylcarbamoylmethylsulfanyl]-benzoic acid], for which the Ki is 0.398 nM.
Take `Cc1cc(F)ccc1CN1CCO[C@@H](CNC(=O)CSc2ccc(C(=O)O)cc2F)C1` [Example 31A, 3-Fluoro-4-[[(2S)-4-[(4-fluoro-2-methyl-phenyl)methyl]morpholin-2-yl]methylcarbamoylmethylsulfanyl]benzoic Acid]: the Ki is 1 nM.
On the same count and under the same terms, in the case of `O=C(CSc1cccc(C(=O)O)c1)NC[C@H]1CN(Cc2ccc(Cl)c(Cl)c2)CCO1` [Example 6, (S)-3-[[4-[(3,4-dichlorophenyl)methyl]morpholin-2-yl]methylcarbamoylmethylsulfanyl]-benzoic acid] it was 0.501 nM.
Same read-out and setting: in the case of `Cc1c(CN2CCOC(CNC(=O)CSc3nc(N)c(C(=O)O)cc3F)C2)ccc(Cl)c1Cl` (centres unmarked) [Example 10A, 2-Amino-6-({[4-(3,4-dichloro-2-methyl-benzyl)-morpholin-2-ylmethyl]-carbamoyl}-methylsulfanyl)-5-fluoro-nicotinic Acid] it was 0.2 nM.
